Data set [1] concerns miR-21-3p. In words: qRT-PCR microRNA assay in primary human hepatocytes. Type of data set: cell-based. Conditions: PHHs, 40 μM berberine, 2 h. The method, then:
The primary human hepatocytes from Caucasian donors were purchased from Invitrogen and cultured following the manufacturer's instructions. The hepatocytes were thawed and transferred into cryopreserved hepatocytes recovery medium (CM7000, Invitrogen), centrifuging at room temperature, 100×g for 10 min. Then, the hepatocytes were diluted to seeding density with plating medium (CM3000, Invitrogen) and added into collagen I-coated plates (Invitrogen). These plates were incubated at 37° C. for 4-6 hours under 5% CO2 for forming a monolayer. Then, plating medium was replaced by overlay incubation medium (CM4000 and 0.35 mg/mL Geltrex™ Matrix, Invitrogen), and the incubation medium was replaced daily. In the following examples, hepatocytes form 3 to 4 donors were used for experiments. A 50 mM stock solution of berberine chloride (Sigma-Aldrich) was prepared in dimethyl sulfoxide (DMSO). Cells were treated with 40 μM of berberine chloride or 0.08% DMSO as the control. For induction of lipid droplets formation in cultured cells, 200 μM of oleic acid (Sigma-Aldrich) was added into the culture medium for 24 h. Total RNA was extracted using a TRIZOL reagent (Invitrogen) according to the manufacturer's protocol. The total RNA quantity was measured using a NanoDrop ND-1000 spectrophotometer (Nanodrop Technologies). […]
Background: Real-time PCR tracks product formation cycle by cycle.

Data set [2] has as its system HepG2 cells. The experiment in a line: Apoptosis (sub-G1 population) by flow cytometry with PI staining. Type of data set: cell-based, human. Conditions: HepG2, 50 nM mimic transfection 72 h vs NC mimic. Here is the method: After transfection with 50 nM of hsa-miR-21-3p mimic or the negative-control mimic for 72 h, the HepG2 cells were trypsinized and counted. Apoptosis was detected by measuring the sub-G1 population by using flow cytometry with propidium iodide (PI) staining. In brief, the cells were fixed in 70% ethanol on ice for 15 min, and stained with the PI staining solution (20 μg/mL PI, 0.1% Triton-X 100, and 0.2 mg/mL RNase A in PBS) for 30 min at room temperature and analyzed using CyAn ADP (Beckman Coulter) flow cytometry with Summit software.
(In general: In flow cytometry, cells or beads pass a laser one at a time.)

Data set [3] deals with TMEM137. The experiment in a line: qRT-PCR mRNA expression in HepG2 cells. Type of data set: cell-based, human. The note with it: HepG2, 50 nM mimic transfection, 24 hours. Here is the method:
(§1) The human HepG2 cells and HEK 293T cells used in the following examples were originally obtained from the American Tissue Culture Collection (ATCC, USA). The human HCC HepG2 cell line was cultured in Minimum Essential Medium Eagle (Sigma) supplemented with 10% fetal bovine serum (FBS) (Invitrogen), 2.2 g/L of sodium bicarbonate (Sigma), 0.1 mM of non-essential amino acids (Caisson), 1 mM of sodium pyruvate (Invitrogen), and 10 of ml/L penicillin-streptomycin-amphotericin solution (Biological Industries). Human HEK-293T cells were maintained in high-glucose Dulbecco's modified eagle medium (Invitrogen) supplemented with 10% FBS and 3.7 g/L of sodium bicarbonate (Sigma). Both cell lines were cultured at 37° C. and 5% CO2.
(§2) Total RNA was extracted using a TRIZOL reagent (Invitrogen) according to the manufacturer's protocol. The total RNA quantity was measured using a NanoDrop ND-1000 spectrophotometer (Nanodrop Technologies). The total RNA quality and integrity were assayed using an Agilent 2100 bioanalyzer with an RNA 6000 nano kit (Agilent Technologies).
(§3) Total RNAs (1 μg) were reverse-transcribed into cDNA by using M-MuLV Reverse Transcriptase (Thermo) and Oligo(dT)12-18 primers (Invitrogen) according to the manufacturer's protocol. The cDNA were then used for a real-time PCR with a LightCycler 480 SYBR Green I Master (Roche) by using primers shown in the following Table 1. The gene expression levels were normalized to GAPDH levels.
(§4) The HepG2 cells were transfected at a density of 5×10^4 cells per well in a 24-well culture plates with either 50 nM of hsa-miR-21-3p (miR-21-3p mimic) or negative-control mimic (NC mimic), or with either 100 nM of hsa-miR-21-3p inhibitor (miR-21-3p inhibitor) or negative-control inhibitor (NC inhibitor) by using the DharmaFECT 4 transfection reagent (Thermo Scientific Dharmacon) according to the manufacturer's instructions. Cells were incubated for 24 h or 48 h with a microRNA mimic or inhibitor prior to RNA purification for gene expression analysis, and were incubated for 72 h for protein expression analysis.

Data set [4] concerns DIDO1. In words: qRT-PCR mRNA expression in HepG2 cells. The data set is classed as cell-based, human. Conditions: HepG2, 50 nM mimic transfection, 24 hours. Here is the method: as §1, §2, §3, §4
Data set [5] has as its system DGAT2. The experiment in a line: qRT-PCR mRNA expression in HepG2 cells. The data set is classed as cell-based, human. Conditions: HepG2, miR-21-3p over-expressed, 24 h. The method, then:
as §1, §2, §3, §4

In data set [6] the test system is NBPF8. In words: qRT-PCR mRNA expression in HepG2 cells. The data set is classed as cell-based, human. The note with it: HepG2, 50 nM mimic transfection, 24 hours. Here is the method: as §1, §2, §3, §4
Data set [7] relates to EEF2K. In words: qRT-PCR mRNA expression in HepG2 cells. The data set is classed as cell-based, human. The note with it: HepG2, 50 nM mimic transfection, 24 hours. Here is the method:
as §1, §2, §3, §4

The test system of data set [8] is ACACA. The experiment in a line: qRT-PCR mRNA expression in HepG2 cells. Type of data set: cell-based, human. Conditions: HepG2, mimic transfection, 24 h. The method, then: The human HepG2 cells and HEK 293T cells used in the following examples were originally obtained from the American Tissue Culture Collection (ATCC, USA). The human HCC HepG2 cell line was cultured in Minimum Essential Medium Eagle (Sigma) supplemented with 10% fetal bovine serum (FBS) (Invitrogen), 2.2 g/L of sodium bicarbonate (Sigma), 0.1 mM of non-essential amino acids (Caisson), 1 mM of sodium pyruvate (Invitrogen), and 10 of ml/L penicillin-streptomycin-amphotericin solution (Biological Industries). Human HEK-293T cells were maintained in high-glucose Dulbecco's modified eagle medium (Invitrogen) supplemented with 10% FBS and 3.7 g/L of sodium bicarbonate (Sigma). Both cell lines were cultured at 37° C. and 5% CO2. A 50 mM stock solution of berberine chloride (Sigma-Aldrich) was prepared in dimethyl sulfoxide (DMSO). Cells were treated with 40 μM of berberine chloride or 0.08% DMSO as the control. For induction of lipid droplets formation in cultured cells, 200 μM of oleic acid (Sigma-Aldrich) was added into the culture medium for 24 h. Total RNA was extracted using a TRIZOL reagent (Invitrogen) according to the manufacturer's protocol. The total RNA quantity was measured using a NanoDrop ND-1000 spectrophotometer (Nanodrop Technologies). The total RNA quality and integrity were assayed using an Agilent 2100 bioanalyzer with an RNA 6000 nano kit (Agilent Technologies). Total RNAs (1 μg) were reverse-transcribed into cDNA by using M-MuLV Reverse Transcriptase (Thermo) and Oligo(dT)12-18 primers (Invitrogen) according to the manufacturer's protocol. The cDNA were then used for a real-time PCR with a LightCycler 480 SYBR Green I Master (Roche) by using primers shown in the following Table 1. The gene expression levels were normalized to GAPDH levels. […] Cells were incubated for 24 h or 48 h with a microRNA mimic or inhibitor prior to RNA purification for gene expression analysis, and were incubated for 72 h for protein expression analysis.

Consider `COc1ccc2cc3[n+](cc2c1OC)CCc1cc2c(cc1-3)OCO2` [berberine], for which, in data set [1], the “miR-21-3p expression (qRT-PCR)” value was “up-regulation”.
Take “hsa-miR-21-3p (CAACACCAGUCGAUGGGCUGU; listed as RNA, chemistry not given here) [miR-21-3p mimic]”: the “apoptosis (sub-G1 population)” value in data set [2] is listed as “induced apoptosis”. In addition, the “decrease in mRNA expression of TMEM137” value in data set [3] was below 50%. For the same compound, the “decrease in mRNA expression of DIDO1” value in data set [4] is below 50%. The “decrease in mRNA level of DGAT2” value in data set [5] amounted to 2.3 fold. Besides, in data set [6], the “decrease in mRNA expression of NBPF8” value is given as below 50%. Besides, in data set [7], the “decrease in mRNA expression of EEF2K” value was above 50%. In data set [8], the “decrease in mRNA expression of ACACA” value is given as 44%.

For the origin of these results see US9469854B2, “Pharmaceutical composition for treating liver diseases” (Academia Sinica, priority 2014, dated 2016).
